Measurements taken from patent US6897212B2, “Treatment of oppositional defiant disorder and conduct disorder with 5-aminoalkyl-4,5,6,7-tetrahydro-4-oxyindolones” (Afecta Pharmaceuticals, priority 2002, dated 2005).
Like-named read-outs stand apart in the source and are kept apart here.

What was measured:
5-HT2A = 5-HT2A (Homo sapiens, UniProt P28223); assay: in vitro activity (pA2) on cells expressing serotonine receptors
Dopamine 2 receptor = Dopamine 2 receptor (Homo sapiens, UniProt P14416); assay: binding affinity to Dopamine 2 receptor in cell membrane homogenates
Sequence of Dopamine 2 receptor (P14416 whole entry): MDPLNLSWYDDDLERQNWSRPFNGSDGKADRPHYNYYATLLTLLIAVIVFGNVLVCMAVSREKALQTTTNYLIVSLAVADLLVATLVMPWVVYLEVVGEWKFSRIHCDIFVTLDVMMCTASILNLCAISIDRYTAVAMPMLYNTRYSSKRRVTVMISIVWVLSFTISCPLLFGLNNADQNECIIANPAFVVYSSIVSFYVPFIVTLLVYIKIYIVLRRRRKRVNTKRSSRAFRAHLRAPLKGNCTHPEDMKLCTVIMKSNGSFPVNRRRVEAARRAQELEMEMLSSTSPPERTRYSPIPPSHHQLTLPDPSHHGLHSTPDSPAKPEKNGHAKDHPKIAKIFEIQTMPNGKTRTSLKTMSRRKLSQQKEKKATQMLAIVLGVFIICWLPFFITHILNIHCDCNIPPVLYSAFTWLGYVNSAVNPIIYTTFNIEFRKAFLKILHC

Serotonin 2A receptor = molecular target: T1, Serotonin 2A receptor (Homo sapiens, UniProt P28223); assay: binding affinity to Serotonin 2A receptor in cell membrane homogenates; conditions: for Ki: cell membrane homogenates, read-out: pKi 5-HT2A (converted); for pKi ratio 5-HT2A/D2: ratio of Serotonin 2A binding to Dopamine 2 binding
T1 construct: membrane homogenates
T1 sequence (P28223 whole entry): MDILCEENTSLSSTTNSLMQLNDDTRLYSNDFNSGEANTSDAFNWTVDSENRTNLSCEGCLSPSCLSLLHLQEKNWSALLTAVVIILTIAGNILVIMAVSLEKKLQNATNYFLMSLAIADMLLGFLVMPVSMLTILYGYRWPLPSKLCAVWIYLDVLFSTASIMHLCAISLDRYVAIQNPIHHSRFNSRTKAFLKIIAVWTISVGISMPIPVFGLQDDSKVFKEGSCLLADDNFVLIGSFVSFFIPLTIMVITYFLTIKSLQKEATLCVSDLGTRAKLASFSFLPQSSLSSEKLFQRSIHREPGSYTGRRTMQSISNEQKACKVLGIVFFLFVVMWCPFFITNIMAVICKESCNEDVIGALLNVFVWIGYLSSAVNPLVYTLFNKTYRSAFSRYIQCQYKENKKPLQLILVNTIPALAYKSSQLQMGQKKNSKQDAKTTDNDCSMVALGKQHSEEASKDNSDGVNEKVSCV
From the text: The formulae of the compounds are [drawing 6]
Here, the pKi value is a measure for the binding affinity of the test compounds to the receptors present in cell membrane homogenates. D1 refers to the Dopamine 1 receptor, D2 refers to the Dopamine 2 receptor, and 5-HT2A refers to the Serotonin 2A receptor, while the pKi ratio presents the ratio of Serotonin 2A binding to Dopamine 2 binding.

[1] = cited from earlier work
[2] = tested on: children with undersocialized conduct disorder, aggressive type; conditions: cited from earlier work; for behavior ratings: double-blind study, 31 children, ages 6-11 years (Greenhill et al., 1985)
[3] = weight gain in treated patients
[4] = tested on: patients with refractory depression; conditions: 19 patients with refractory depression; molindone 10-30 mg/day; cited from earlier work
Dopamine 1 receptor = Dopamine 1 receptor (Homo sapiens, UniProt P21728); assay: binding affinity to Dopamine 1 receptor in cell membrane homogenates
Sequence of Dopamine 1 receptor (P21728 whole entry): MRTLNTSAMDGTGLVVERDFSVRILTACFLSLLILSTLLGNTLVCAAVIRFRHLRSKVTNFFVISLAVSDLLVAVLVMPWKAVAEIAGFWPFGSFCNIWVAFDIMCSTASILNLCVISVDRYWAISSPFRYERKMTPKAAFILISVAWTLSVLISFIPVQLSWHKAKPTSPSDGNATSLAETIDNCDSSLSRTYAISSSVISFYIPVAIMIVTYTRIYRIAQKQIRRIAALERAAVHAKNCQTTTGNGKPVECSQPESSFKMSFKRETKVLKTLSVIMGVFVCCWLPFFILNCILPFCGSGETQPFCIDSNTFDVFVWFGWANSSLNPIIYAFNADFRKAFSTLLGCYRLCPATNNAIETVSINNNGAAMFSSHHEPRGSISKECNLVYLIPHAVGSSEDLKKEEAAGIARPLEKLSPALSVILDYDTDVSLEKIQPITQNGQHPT

patients with ODD = assay: treatment of patients with oppositional defiant disorder and conduct disorder; type: in vivo, human
From the text: The side effect is totally unacceptable to teenagers.
Case histories are set out in the following examples, which are offered by way of illustration and are not intended to limit the invention in any manner.

[5] = human, in vivo
monoamine oxidase = conditions: in vitro and in vivo; cited from earlier work
[6] = cited from earlier work; remark: listed apart in the source

Sequence of 5-HT2A (P28223 whole entry, species assumed): as the sequence (P28223 whole entry) above

Structure (SMILES): CCc1c(C)[nH]c2c1C(=O)C(CCN1CCN(c3ccccc3OC)CC1)CC2 (stereo not drawn) [Compound 2]
- Kb (5-HT2A): 31.6 nM
- Ki (Dopamine 2 receptor): 28.2 nM
- Ki (Serotonin 2A receptor): 91.2 nM
- pKi ratio 5-HT2A/D2 (Serotonin 2A receptor): 0.97

Structure (SMILES): CN(C)CCCN1c2ccccc2Sc2ccc(Cl)cc21 [chlorpromazine]
- fraction in plasma not bound to protein [1]: 0.13%

Structure (SMILES): CSc1ccc2c(c1)N(CCC1CCCCN1C)c1ccccc1S2 (stereo not drawn) [thioridazine]
- behavior ratings [2]: improvement in behavior ratings

Structure (SMILES): Cc1cc2c(s1)Nc1ccccc1N=C2N1CCN(C)CC1 [olanzapine]
- weight gain ([3]; Example 3, patient one): significant weight gain
- weight gain ([3]; patients, especially children): unacceptable level of weight gain, sometimes approaching a pound a day

Structure (SMILES): N[C@@H]1C[C@H]1c1ccccc1 (racemic) [tranylcypromine]
- patients showing definite improvement [4]: two

Structure (SMILES): CCc1c(C)[nH]c2c1C(=O)C(CCN1CCOCC1)CC2 (stereo not drawn) [Compound 1]
- Kb (5-HT2A): 105 nM
- Ki (Dopamine 2 receptor): 589 nM
- Ki (Serotonin 2A receptor): 912 nM
- pKi ratio 5-HT2A/D2 (Serotonin 2A receptor): 0.97
- Ki (Dopamine 1 receptor): 2140 nM

Structure (SMILES): Cc1nc2n(c(=O)c1CCN1CCC(c3noc4cc(F)ccc34)CC1)CCCC2 [risperidone]
- weight gain ([3]; Example 3, patient one): significant weight gain
- weight gain ([3]; patients, especially children): unacceptable level of weight gain, sometimes approaching a pound a day
- effect on oppositional behavior (patients with ODD; Example 3, patient one, used instead of molindone): significant improvement in the oppositional behavior
- treatment of ODD (patients with ODD; unpublished observations): capable of effectively treating ODD

Structure (SMILES): CCc1c(C)[nH]c2c1C(=O)C(CN1CCOCC1)CC2 (stereo not drawn) [Molindone, 3-ethyl-6,7-dihydro-2-methyl-5-(morpholinomethyl)indol-4-(5H)-one]
- patients showing definite improvement [4]: Five of the 10 patients
- weight gain [5]: rarely, if ever, causes weight gain
- behavior ratings [2]: improvement in behavior ratings
- aggressive behavior and Nurses' Global Assessment Scale ([2]; open trial, six patients, ages 6-11 years (Greenhill et al., 1981)): some improvement
- inhibition of monoamine oxidase (monoamine oxidase): inhibits the enzyme monoamine oxidase in vitro and in vivo
- prolongation of half-life ([6]; concomitant lithium therapy): at least fourfold
- elimination half-life ([6]; humans): approximately 2 hours
- effect on tantrums, hitting, rages and swearing (patients with ODD; Example 1, patient three, ¼ of a 5 mg tablet every 4 hours): immediate cessation of the tantrums, hitting and rages and less swearing
- effect of raised dose (patients with ODD; Example 1, patient three, ½ of a 5 mg tablet every 4 hours after three months): more effective
- effect on tantrums and aggressive behaviors (patients with ODD; Example 2, patient two, 2.5 mg every 4 hours): the tantrums and aggressive behaviors disappeared
- persistence of effect (patients with ODD; Example 2, patient two, after 6 months of use): still effective
- effect on behavior after molindone was again initiated (patients with ODD; Example 3, patient one): immediate and dramatic improvement in the behavior
- effect on oppositional behavior (patients with ODD; Example 3, patient one, molindone 10 mg bid): dramatic decrease in oppositional behavior
- treatment of ODD (patients with ODD; more than 50 patients with ODD, usual dose 1.25 to 10 mg every 4 hours): successfully treated

Structure (SMILES): O=C(CCCN1CCC(O)(c2ccc(Cl)cc2)CC1)c1ccc(F)cc1 [haloperidol]
- fraction in plasma not bound to protein [1]: 9%
